{"source": "patent US5726203A", "about": "“Qinghaosu derivatives against AIDS” (priority 1993, dated 1998)", "key": {"U937 HIV-1 [1]": {"test_system": "U937 HIV-1", "test": "Inhibition effect on HIV-1 infected U937 cells (macrophage cell line), HIV antigen test (IE)", "assay_type": "cell-based", "conditions": "U937 HIV-1; 50 μg/ml", "method": "(§1) a. Freshly cultured MT4 cells (5×10^5 /ml) were co-cultivated with the virus fluid (10^3 TCID50 /ml) in a CO2 incubator at 37° C. for 1-1.5 hours. RPMI 1640 complete medium (containing 10% Bovine serum and antibiotics, such as penicillin) was used to wash the unbound virus.\n(§2) Complete medium was added to correct the concentration for use.\n(§3) The experiment was carried out on the plates with 96 wells. 0.1 ml of the above-mentioned infected MT4 cell suspension was added into each well, and then 0.1 ml of various concentrations of the drugs were added. […] Each concentration of the drugs was added into two wells. Both the experiment group and the control group were incubated in a CO2 incubator at 37° C. The drug solution were changed 3 days later, and the following observations were carried out 6 days afterwards.\n(§4) c. Determination of the virus antigen expression. The immunoenzymatic method was used to examine the virus antigen expression. Cells from each group were separately smeared in two wells. They were fixed with cold acetone, HIV-positive serum was dropped into the wells. After incubated in a CO2 incubator at 37° C. for 30 minutes, they were washed with PBS for 3 times. Enzyme-labelled SPA was dropped into the wells. They were incubated in the same condition for 30 minutes, washed with PBS for 3 times, and then put in substrate solution to stain for 2-3 minutes, washed with distilled water, and observed under microscope. Normal cells were colorless, whereas virus-carrying cells appeared browrish red.\n(§5) Furthermore, a part of the compounds according to the present invention were used to test their inhibition effect on U937 cell line (macrophage cell line)according to the methods in Experiment 1."}, "[2]": {"test": "Subacute toxicologic study", "conditions": "in vivo, read-out: basic safe dosage"}, "HIV-1 (MT4)": {"test_system": "HIV-1 (MT4)", "test": "Anti-HIV effect on MT4 cells, virus antigen expression (immunoenzymatic method)", "assay_type": "cell-based", "excerpt": "The virus used was HIV-1 which had been obtained from Professor Montagnier of the Pastear Institute, France. The virus titer used in the experiment was 1×10^4 TCID50 /ml. The cell culture used was CEM cell line which was cultivated in the HIV laboratory of Institute of Virology, Chinese Academy of Preventive Medicine, for cultivation storage of HIV-1.\nThe compounds used in the experiment were qinghaosu, dihydroqinghaosu, Artesunate, Artemether, dihydroqinghaosu-methylcarbamate, dihydroqinghaosu-benzenecarbamate, qinghaosu-morpholinyl propylether maleate, dihydroqinghaosu-diethyl amino ethyl ether maleate, deoxyqinghaosu-morpholinyl ethyl ether maleate, qinghaosu-morpholinyl propanol ether maleate, qinghaosu-3,5-dimonpholinyl methyl-4-hydroxy benzyl ether maleate, dihydroqinghaosu-m-chlorobenzoate, qinghaosu-3-pyrrolidinylmethyl-4-hydroxybenzoate oxalate, and qinghaosu-3-morpholinylmethyl-4-hydroxybenzoate oxalate. […] The concentration of the original solution of these compounds were all 1 mg/ml.\nas §1, §2, §3\nb. Observation on the growth situation of cells. Trypan blue dye was used to observe the quantity of live cells in each group.\nas §4\nThe mark used were as follows:\nThe experiment was repeated two to three times.\nThe concentration of the original fluid of these compounds were all 1 mg/ml. 0.1 ml was taken and added into 0.1 ml of virus-carrying cell suspension, thus the reaction concentrations were as follows: in the original fluid group, 0.1 mg/0.2 ml, i.e., 0.5 mg/ml; in 1×10^-1group, 0.05 mg/ml; in 1×10^-2 group, 0.005 mg/ml; in 1×10^-3 group, 0.0005 mg/ml, i.e., 0.5 μg/ml; and on the analogy of this."}, "Toxoplasma Gendei": {"test_system": "Toxoplasma Gendei", "test": "Antitoxoplasma effect in vitro in BALB/C mouse macrophages", "assay_type": "cell-based", "conditions": "for Infected rate of macrophages / No. of parasites in 100 macrophages / inhibition at 50 µg/mL / inhibition at 100 µg/mL / inhibition at 200 µg/mL: 48 hours; for Infected rate of macrophages: control 75.60; for No. of parasites in 100 macrophages: control 544.00; for inhibition at 50 µg/mL / inhibition at 100 µg/mL / inhibition at 200 µg/mL: Toxoplasma, Macrophage", "method": "In vitro incubation was used in the experiment. Macrophages were taken from intraperitoneal of the uninfected BALB/C mice (obtained from Universite Pierre et Marie Curie), centrafuged, washed and counted. Around 1.28×10^5 cells was added into each culture dish, incubated at 37° C. for 3 hours to let the cells to be adherented, then infected by parasites (Toxoplasma Gendei, obtained from Universite Pierre et Marie Curie), in which parasite number was 1×106, so that there were 5 organisms per macrophage. The dishes were incubated at 37° C. for 48 hours, different concentration, (i.e., 50 μg/ml, 100 μg/ml, 200 μg/ml) of the compound according to the present invention was added in. In a control group, no drug was added in. After being cultured at 37° C. for 48 hours, dishes of compound treated groups and control group were colorated. Under microscope, the number of infected and uninfected macrophages in each dishes were counted and to calculated infected rate of macrophage and to count the number of parasites in 100 macrophages."}, "Plasmodium Berghei": {"test_system": "Plasmodium Berghei", "test": "Peters' four day inhibition test in mice, erythrocytic stage of Plasmodium Berghei", "assay_type": "in vivo", "conditions": "once a day D0-D3, Hybrid Kunming strain mice, read-out: SD50 (the source's name)", "excerpt": "Effect on Erythrocytic Stage of Plasmodium Berghei 1. \"Four day inhibition test\" in mice To determinate the SD50 with Peters' \"four day inhibition test\". Hybrid Kunming strain mice, body weight 18-22 g, were inculated with 1×10^7 parasites infected RBC intraperitoneally on D0. Dihydroqinghaosu-methylcarbamate, dihydroqinghaosu-butylcarbamate, dihydroqinghaosu-benzenecarbamate and dihydroqinghaosu-4-nitrobenzenecarbamate with different concentration were given once a day from D0 -D3. Blood smears from mouse's tail were made on D4, stained with Gimsa reagent and examined under microscope to count the infected and uninfected erthrocyte to get infected rate. Inhibitory rates of different dosages were calculated by following formula. The SD50 was calculated by the simplified probit analysis: [formula]"}, "U937 HIV-1 [3]": {"test_system": "U937 HIV-1", "test": "Inhibition effect on HIV-1 infected U937 cells, activity of reverse transcriptase", "assay_type": "cell-based", "conditions": "50 μg/ml, control 24502", "excerpt": "as §5"}}, "note": "Read-outs that look alike come from different tables or passages of the source."}
{"smiles": "CNC(=O)OC1OC2OC3(C)CCC4C(C)CCC(C1C)C24OO3", "note": "(stereo not shown) [Dihydroqinghaosu-methylcarbamate, Dihydroqinghaosu-Methylcarbamate]", "values": [{"measurement": "Antigen test (IE)", "setting": "U937 HIV-1 [1]", "value": "- (positive cells were not seen in the whole well)"}, {"measurement": "NOAEL", "setting": "[2]", "value": 30.2, "unit": "mg/kg/day"}, {"measurement": "effect on HIV-1 (MT4), virus antigen expression", "setting": "HIV-1 (MT4); 1 × 10^-1 (50 μg/ml)", "value": "- (positive cells were not seen in the whole well)"}, {"measurement": "effect on HIV-1 (MT4), virus antigen expression", "setting": "HIV-1 (MT4); 1 × 10^-2 (5 μg/ml)", "value": "- (positive cells were not seen in the whole well)"}, {"measurement": "effect on HIV-1 (MT4), virus antigen expression", "setting": "HIV-1 (MT4); 1 × 10^-3 (0.5 μg/ml)", "value": "- (positive cells were not seen in the whole well)"}, {"measurement": "effect on HIV-1 (MT4), virus antigen expression", "setting": "HIV-1 (MT4); 1 × 10^-4 (0.05 μg/ml)", "value": "- (positive cells were not seen in the whole well)"}, {"measurement": "inhibition on HIV", "setting": "HIV-1 (MT4); according to Table 1", "value": "distinct inhibition on HIV"}, {"measurement": "Infected rate of macrophages", "setting": "Toxoplasma Gendei; 50 μg/ml", "value": 0.67}, {"measurement": "No. of parasites in 100 macrophages", "setting": "Toxoplasma Gendei; 50 μg/ml", "value": 2.67}, {"measurement": "Infected rate of macrophages", "setting": "Toxoplasma Gendei; 100 μg/ml", "value": 0}, {"measurement": "No. of parasites in 100 macrophages", "setting": "Toxoplasma Gendei; 100 μg/ml", "value": 0}, {"measurement": "Infected rate of macrophages", "setting": "Toxoplasma Gendei; 200 μg/ml", "value": 0}, {"measurement": "No. of parasites in 100 macrophages", "setting": "Toxoplasma Gendei; 200 μg/ml", "value": 0}, {"measurement": "inhibition at 50 µg/mL", "setting": "Toxoplasma Gendei; 50 μg/ml, read-out: Inhibition rate (No. of parasites in 100 macrophages)", "value": 99.5, "unit": "%"}, {"measurement": "inhibition at 50 µg/mL", "setting": "Toxoplasma Gendei; 50 μg/ml, read-out: Inhibition rate (infected rate of macrophages)", "value": 99.1, "unit": "%"}, {"measurement": "inhibition at 100 µg/mL", "setting": "Toxoplasma Gendei; 100 μg/ml, read-out: Inhibition rate (No. of parasites in 100 macrophages)", "value": 100, "unit": "%"}, {"measurement": "inhibition at 100 µg/mL", "setting": "Toxoplasma Gendei; 100 μg/ml, read-out: Inhibition rate (infected rate of macrophages)", "value": 100, "unit": "%"}, {"measurement": "inhibition at 200 µg/mL", "setting": "Toxoplasma Gendei; 200 μg/ml, read-out: Inhibition rate (No. of parasites in 100 macrophages)", "value": 100, "unit": "%"}, {"measurement": "inhibition at 200 µg/mL", "setting": "Toxoplasma Gendei; 200 μg/ml, read-out: Inhibition rate (infected rate of macrophages)", "value": 100, "unit": "%"}, {"measurement": "inhibition on Toxoplasma Gendei in vitro", "setting": "Toxoplasma Gendei; in words", "value": "obvious inhibition on Toxoplasma Gendei in vitro"}, {"measurement": "ED50", "setting": "Plasmodium Berghei", "value": 0.24, "unit": "mg/kg"}, {"measurement": "Activity of reverse transcription (CPM)", "setting": "U937 HIV-1 [3]", "value": 4463, "unit": "CPM"}]}
